Patent US20090178149A1, “Polyamine Sensors and Methods of Using the Same” (priority 2005, published 2009)

Target: FLIP-AF1 biosensor (AF1 protein fused to CFP and YFP Venus) (Agrobacterium fabrum, UniProt A9CK51)
Details: excitation 433 nm, emission 485/528 nm; 20 mM sodium phosphate buffer, pH 7.0
Method: A DNA fragment encoding the mature AF1 protein was fused to CFP and the YFP Venus sequence at the N- and C-termini, respectively. Emission spectra and substrate titration curves were obtained by using monochromator microplate reader Safire (Tecan, Austria). Excitation filter was 433/−12 nm, emission filters for CFP and YFP emission were 485/−12, 528 nm/12 nm, respectively. All analyses were done in 20 mM sodium phosphate buffer, pH 7.0.
The FLIP-AF1 biosensor (see SEQ ID Nos. 3 and 4) was titrated against various putrescine concentrations.

Sequence of FLIP-AF1 biosensor (AF1 protein fused to CFP and YFP Venus) (A9CK51 27-365): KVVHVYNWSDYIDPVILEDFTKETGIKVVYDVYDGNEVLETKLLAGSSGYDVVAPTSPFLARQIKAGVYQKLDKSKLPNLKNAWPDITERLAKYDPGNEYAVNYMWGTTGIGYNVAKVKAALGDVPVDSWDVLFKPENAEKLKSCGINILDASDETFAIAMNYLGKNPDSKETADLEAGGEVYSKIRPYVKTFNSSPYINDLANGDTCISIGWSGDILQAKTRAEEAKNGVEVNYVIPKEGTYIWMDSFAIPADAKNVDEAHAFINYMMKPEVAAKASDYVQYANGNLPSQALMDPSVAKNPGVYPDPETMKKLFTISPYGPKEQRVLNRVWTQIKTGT

## NCCCCN [putrescine, 1,4-diaminobutane]
  change in CFP/YFP emission (YFP/CFP ratio) on addition of putrescine: decrease in the YFP/CFP ratio
